Experiments:
Assay type in all cases: functional
NCI-H322M [1] = assay: Growth inhibition of Homo sapiens (human) NCI-H322M cells at 10 uM after 48 hr by SRB assay; conditions: read-out: GI
Malme-3M = assay: Anticancer activity against Homo sapiens (human) MALME-3M cells after 48 hr by SRB assay; conditions: for CC50: read-out: LC50 (the source's name)
NCI-H322M [2] = assay: Anticancer activity against Homo sapiens (human) NCI-H322M cells after 48 hr by SRB assay; conditions: for CC50: read-out: LC50 (the source's name)
OVCAR-8 = assay: Growth inhibition of Homo sapiens (human) OVCAR8 cells at 10 uM after 48 hr by SRB assay; conditions: OVCAR-8, 48 h, read-out: GI
NCI-H226 [3] = assay: Growth inhibition of Homo sapiens (human) NCI-H226 cells at 10 uM after 48 hr by SRB assay; conditions: NCI-H226, 48 h, read-out: GI
SK-OV-3 = assay: Growth inhibition of Homo sapiens (human) SKOV3 cells at 10 uM after 48 hr by SRB assay; conditions: SK-OV-3, 48 h, read-out: GI
OVCAR-4 = assay: Growth inhibition of Homo sapiens (human) OVCAR4 cells at 10 uM after 48 hr by SRB assay; conditions: OVCAR-4, 48 h, read-out: GI
SK-MEL-5 = assay: Growth inhibition of Homo sapiens (human) SK-MEL-5 cells at 10 uM after 48 hr by SRB assay; conditions: SK-MEL-5, 48 h, read-out: GI
RPMI-8226 = assay: Growth inhibition of Homo sapiens (human) RPMI8226 cells at 10 uM after 48 hr by SRB assay; conditions: RPMI-8226, 48 h, read-out: GI
NCI-H522 = assay: Growth inhibition of Homo sapiens (human) NCI-H522 cells at 10 uM after 48 hr by SRB assay; conditions: NCI-H522, 48 h, read-out: GI
NCI/ADR-RES = assay: Growth inhibition of Homo sapiens (human) NCI/ADR-RES cells at 10 uM after 48 hr by SRB assay; conditions: read-out: GI
SK-MEL-28 = assay: Growth inhibition of Homo sapiens (human) SK-MEL-28 cells at 10 uM after 48 hr by SRB assay; conditions: SK-MEL-28, 48 h, read-out: GI
COLO 205 = assay: Growth inhibition of Homo sapiens (human) COLO205 cells at 10 uM after 48 hr by SRB assay; conditions: COLO 205, 48 h, read-out: GI
IGROV-1 = assay: Growth inhibition of Homo sapiens (human) IGROV1 cells at 10 uM after 48 hr by SRB assay; conditions: IGROV-1, 48 h, read-out: GI
UACC-257 = assay: Growth inhibition of Homo sapiens (human) UACC257 cells at 10 uM after 48 hr by SRB assay; conditions: UACC-257, 48 h, read-out: GI
NCI-H226 [4] = assay: Anticancer activity against Homo sapiens (human) NCI-H226 cells after 48 hr by SRB assay; conditions: NCI-H226, 48 h; for CC50: read-out: LC50 (the source's name)
CAKI-1 = assay: Growth inhibition of Homo sapiens (human) CAKI-1 cells at 10 uM after 48 hr by SRB assay; conditions: CAKI-1, 48 h, read-out: GI
A498 = assay: Growth inhibition of Homo sapiens (human) A498 cells at 10 uM after 48 hr by SRB assay; conditions: A498, 48 h, read-out: GI
SF-268 = assay: Growth inhibition of Homo sapiens (human) SF268 cells at 10 uM after 48 hr by SRB assay; conditions: SF-268, 48 h, read-out: GI
EKVX = assay: Growth inhibition of Homo sapiens (human) EKVX cells at 10 uM after 48 hr by SRB assay; conditions: read-out: GI
SK-MEL-2 = assay: Growth inhibition of Homo sapiens (human) SK-MEL-2 cells at 10 uM after 48 hr by SRB assay; conditions: SK-MEL-2, 48 h, read-out: GI
SR = assay: Growth inhibition of Homo sapiens (human) SR cells at 10 uM after 48 hr by SRB assay; conditions: read-out: GI
OVCAR-5 = assay: Growth inhibition of Homo sapiens (human) OVCAR5 cells at 10 uM after 48 hr by SRB assay; conditions: OVCAR-5, 48 h, read-out: GI
MDA-MB-231 = assay: Growth inhibition of Homo sapiens (human) MDA-MB-231/ATCC cells at 10 uM after 48 hr by SRB assay; conditions: MDA-MB-231, 48 h, read-out: GI
DU-145 = assay: Growth inhibition of Homo sapiens (human) DU145 cells at 10 uM after 48 hr by SRB assay; conditions: DU-145, 48 h, read-out: GI

| SMILES | inhibition of growth at 10 µM (NCI-H322M [1]) [%] | GI50 (Malme-3M) [µM] | TGI (Malme-3M) [µM] | CC50 (Malme-3M) [µM] | GI50 (NCI-H322M [2]) [µM] | TGI (NCI-H322M [2]) [µM] | CC50 (NCI-H322M [2]) [µM] | inhibition of growth at 10 µM (OVCAR-8) [%] | inhibition of growth at 10 µM (SK-OV-3) [%] | inhibition of growth at 10 µM (OVCAR-4) [%] | inhibition of growth at 10 µM (SK-MEL-5) [%] | inhibition of growth at 10 µM (RPMI-8226) [%] | inhibition of growth at 10 µM (NCI-H522) [%] | inhibition of growth at 10 µM (NCI/ADR-RES) [%] | inhibition of growth at 10 µM (SK-MEL-28) [%] | inhibition of growth at 10 µM (COLO 205) [%] | inhibition of growth at 10 µM (IGROV-1) [%] | inhibition of growth at 10 µM (UACC-257) [%] | GI50 (NCI-H226 [4]) [µM] | TGI (NCI-H226 [4]) [µM] | other results |
| --- | --- | --- | --- | --- | --- | --- | --- | --- | --- | --- | --- | --- | --- | --- | --- | --- | --- | --- | --- | --- | --- |
| COc1ccc(OC)c(/C=C/c2nnc(Nc3ccc(Cl)cc3)o2)c1 | 41.4 | 9.87 | 52.4 | > 100 | 30.5 | > 100 | > 100 | 33.3 | 67.1 | 116 |  |  |  |  |  |  |  |  |  |  | inhibition of growth at 10 µM (NCI-H226 [3]): 43.9% |
| COc1ccc(OC)c(/C=C/C(=O)N/N=C/c2ccccc2)c1 |  | 2.12 | > 100 | > 100 | 5.22 | > 100 | > 100 | 45.2 | 40 |  | 69.2 | 45.6 | 115 | 91.5 | 34.5 | 57.2 | 61.5 | 48.7 | 30.8 | > 100 | CC50 (NCI-H226 [4]): > 100 µM; inhibition of growth at 10 µM (CAKI-1): 52.2%; inhibition of growth at 10 µM (A498): 61.3%; inhibition of growth at 10 µM (SF-268): 39.3%; inhibition of growth at 10 µM (EKVX): 36%; inhibition of growth at 10 µM (SK-MEL-2): 101% |
| COc1ccc(OC)c(/C=C/c2nnc(S)n2-c2ccc(Cl)cc2)c1 |  | 70.6 | > 100 | > 100 | 26.9 | > 100 | > 100 |  |  |  |  |  |  |  |  |  | 59.9 |  |  |  | inhibition of growth at 10 µM (SR): 61.7% |
| COc1ccc(OC)c(/C=C/C(=O)N/N=C/c2ccc(Cl)cc2)c1 | 58.7 |  | > 100 | > 100 | 0.666 | > 100 | > 100 | 79 | 105 | 59.8 | 69.4 | 78.7 | 136 | 96.2 | 61.2 | 149 | 82.1 | 47 | 0.979 | > 100 | inhibition of growth at 10 µM (OVCAR-5): 71.6%; inhibition of growth at 10 µM (MDA-MB-231): 71.9%; CC50 (NCI-H226 [4]): > 100 µM; inhibition of growth at 10 µM (CAKI-1): 58.2%; inhibition of growth at 10 µM (A498): 87.5%; inhibition of growth at 10 µM (DU-145): 85.2%; inhibition of growth at 10 µM (SF-268): 66.8%; inhibition of growth at 10 µM (EKVX): 56.9%; inhibition of growth at 10 µM (SK-MEL-2): 77.7% |

Source: ChEMBL document CHEMBL3046389, “Synthesis and biological evaluation of novel hydroquinone dimethyl ethers as potential anticancer and antimicrobial agents” (2013)
